Laboratory results taken from PubChem BioAssay (NCI).
Where “and” joins values, the source holds several entries; their conditions need not be identical. Equal values may be shown once.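 All cell lines were grown in 96-well plates and treated with compound for 48 hours. GI50 = concentration required for 50% inhibition of growth. TGI denotes the concentration required for complete inhibition of growth.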

Columns and labels:
Test in all cases: inhibition of tumour cell growth, NCI panel, 48 h
[1] = test system: OVCAR-3 ovarian
[2] = test system: TK-10 renal
[3] = test system: SNB-19 CNS
[4] = test system: BT-549 breast
[5] = test system: COLO 205 colon
[6] = test system: RXF 393 renal
[7] = test system: T-47D breast
[8] = test system: SW-620 colon
[9] = test system: NCI/ADR-RES ovarian
[10] = test system: MOLT-4 leukemia

| Structure (SMILES) | GI50 [1] [µM] | TGI [1] | GI50 [2] [µM] | TGI [2] [µM] | GI50 [3] | TGI [3] | GI50 [4] [µM] | TGI [4] [µM] | GI50 [5] [µM] | TGI [5] | GI50 [6] | TGI [6] [µM] | GI50 [7] [µM] | TGI [7] [µM] | GI50 [8] [µM] | TGI [8] | GI50 [9] [µM] | TGI [9] [µM] | GI50 [10] [µM] | TGI [10] |
| --- | --- | --- | --- | --- | --- | --- | --- | --- | --- | --- | --- | --- | --- | --- | --- | --- | --- | --- | --- | --- |
| CCNCCNc1cc(-c2ccc(Cl)cc2)c(C#N)c2nc3ccccc3n12 | 1.45 | 2.85 µM | 2.04 | 3.62 | 1.84 µM | 3.64 µM | 1.75 | 3.34 | 1.46 | 3.27 µM | 1.44 µM | 2.78 | 1.74 | 3.86 | 1.52 | 3.14 µM | 1.85 | 3.91 |  |  |
| COc1ccc(/C=C\c2cc(OC)c(OC)c(OC)c2)cc1NC(=O)[C@@H](N)CO | < 0.0122 | 0.0415 µM | 19.3 | > 100 | 0.0433 µM | > 100 µM | < 0.0139 | 0.085 | < 0.01 | 0.0153 µM | < 0.01 µM | 26.7 |  |  | 0.027 | > 100 µM | 0.0205 | 0.245 | 0.0432 | > 100 µM |
| O=[N+]([O-])c1ccc2c(c1)OCCOCCOc1ccc([N+](=O)[O-])cc1OCCOCCO2 |  | > 100 µM |  | > 100 |  | > 100 µM |  |  |  | > 100 µM |  | > 100 |  |  |  | > 100 µM |  |  |  | > 100 µM |
| Cc1cc(N(CCC#N)CCC#N)ccc1N=Nc1ccccc1[N+](=O)[O-] |  | > 100 µM |  | > 100 |  |  |  |  |  | > 100 µM |  | > 100 |  |  |  | > 100 µM |  |  |  | > 100 µM |
| CC(=O)CC(=O)CCCC(=O)Nc1ccc(Cl)cc1Cl |  | > 100 µM |  | > 100 |  | > 100 µM |  |  |  | > 100 µM |  |  |  |  |  | > 100 µM |  |  |  | > 100 µM |
| Cc1ccc(C)c(NC(=O)CC2C(=O)Nc3ccccc3S2(=O)=O)c1 (stereo not drawn) |  | > 100 µM |  | > 100 |  | > 100 µM |  |  |  |  |  | 49.6 |  |  |  | > 100 µM |  |  |  | > 100 µM |
| O=C1c2cccnc2-c2nc(-c3ccccn3)cc3c2c1nc1ccccc13 | 0.161 | 0.309 µM | 0.296 | 1.11 | 1.13 µM | 2.65 µM | 0.249 | 0.672 | 0.804 | 3.35 µM | 0.285 µM | 5.84 | 0.601 | 11.9 |  |  | 0.208 | 0.658 | 0.211 | 4.09 µM |
| O=C1C(c2ccc(Cl)cc2)=[N+]([O-])c2ccccc21 |  | 26.8 µM |  | 30.1 |  | 53.8 µM |  |  |  | 32.4 µM |  | 23 |  |  |  | 62.1 µM |  |  |  | > 100 µM |
| O=[N+]([O-])c1ccc(OCCNc2cccc3ccccc23)cc1 |  | > 100 µM |  | > 100 |  | > 100 µM |  |  |  | > 100 µM |  |  |  |  |  | > 100 µM |  |  |  | > 100 µM |
| C=CC[P@@]1(=O)O[C@H](c2ccccc2)C(C)N1C(C)C (stereo partly drawn) |  | > 100 µM |  | > 100 |  | > 100 µM |  |  |  |  |  | > 100 |  |  |  | > 100 µM |  |  |  | > 100 µM |
| COC(=O)[C@H](C)[C@H]1CC[C@@](C)([C@H]2CC3C(C)(C)[C@H]4CCC(C)=C[C@H]4C[C@@]3(C)O2)OO1 (stereo partly drawn) |  | 27.7 µM |  | 28.9 |  | 28.2 µM |  |  |  | 23.8 µM |  |  |  |  |  | 27 µM |  |  |  | 25.3 µM |
| CC(C)SC1SCC2C(=O)N(C)C3(CC3C)C(=O)OCC(NC(=O)c3nc4ccccc4cc3O)C(=O)NC(C)C(=O)N(C)C1C(=O)N(C)C1(CC1C)C(=O)OCC(NC(=O)c1nc3ccccc3cc1O)C(=O)NC(C)C(=O)N2C (stereo not drawn) |  | < 0.0001 µM |  | < 0.0001 |  |  |  |  |  | < 0.0001 µM |  | < 0.0001 |  | > 100 |  |  | 0.0334 |  |  | < 0.0001 µM |
| CC1=C2C(=CC(C)(CO)C2O)C(=O)C(C)(O)C12CC2 (stereo not drawn) |  | 0.019 µM |  | 0.0233 |  | 0.0422 µM |  |  | 0.00454 | 0.0115 µM |  | 0.00569 |  |  |  | 0.0585 µM |  |  |  | 0.0104 µM |
| CC1(c2ccccc2)CC12C(=O)NC(=O)NC2=O (stereo not drawn) |  | > 100 µM |  | > 100 |  | > 100 µM |  |  |  | > 100 µM |  |  |  |  |  | > 100 µM |  |  |  | > 100 µM |
| O=C1CC2(CCCc3sccc32)C(=O)N1 (stereo not drawn) |  | > 100 µM |  | > 100 |  | > 100 µM |  |  |  | > 100 µM |  | > 100 |  | > 100 |  | > 100 µM |  | > 100 |  | > 100 µM |
| COc1cccc(/C=C\c2cc(OC)c(OC)c(OC)c2)c1 |  | 79.1 µM |  |  |  | > 100 µM |  |  |  | 17.3 µM |  |  |  |  |  | > 100 µM |  |  |  | 18 µM |
| Cc1c2cc[n+](C)cc2c(C)c2c1[nH]c1ccc(OC(C)C)cc12 |  | 14.6 µM and 26.7 µM |  | > 100 | 0.776 µM and 1.91 µM | 5.6 µM and 14.3 µM |  |  |  | 3.08 µM and 2.97 µM | 7.26 µM and 20.4 µM | > 100 |  |  |  | 37.9 µM and 21.3 µM |  |  |  | 20.4 µM and 17.1 µM |
| Cc1ccc(C2=[N+]([O-])c3ccccc3C2=O)cc1 |  | 32.2 µM |  | > 31.6 |  | > 77.2 µM |  |  |  | > 72.8 µM |  | 26.6 |  |  |  | > 55.2 µM |  |  |  | > 70 µM |
| N#C[C@]12CC3(CC[C@H]1CC1(C2)OCCO1)OCCO3 |  | > 100 µM |  | > 100 |  | > 100 µM |  |  |  | > 100 µM |  | > 100 |  |  |  | > 100 µM |  |  |  | > 100 µM |
| COc1cccc2c(Nc3ccc(C(=O)NCCNCCO)cc3)cc(-c3ccccc3)nc12 | 39.2 | > 100 µM | 30.2 | > 100 |  |  | 37.3 | > 100 | 23.6 | 86.6 µM | 33.1 µM | 93.1 | 23 | 62 | 37.7 | > 100 µM | > 100 | > 100 |  |  |
| COc1c(O)cc2oc3cc(O)c(CC=C(C)C)c(O)c3c(=O)c2c1C/C=C(\C)CCC=C(C)C | 5.31 | 9.71 µM | 8.15 | 15.5 | 6.51 µM | 12 µM |  |  | 6.37 | 11.4 µM | 5.53 µM | 10.2 |  |  | 5.8 | 10.4 µM | 5.99 | 11.4 | 6.11 | 16.3 µM |
| N.N.NCCCCN.O=C([O-])CC(=O)[O-].O=C([O-])CC(=O)[O-].[Pt+4].[Pt+4] | > 100 | > 100 µM | > 100 | > 100 | > 100 µM | > 100 µM |  |  | > 100 | > 100 µM | > 100 µM | > 100 |  |  | > 100 | > 100 µM |  |  | 52.8 | > 100 µM |
